Values quoted from earlier work in US9452147B2, “Lipolytic methods” (Neothetics, Inc., priority 2005, dated 2016).

Columns and labels:
[1] = relative to albuterol 5, a short acting hydrophilic beta agonist
[2] = test system: thigh circumference in women; conditions: subcutaneous injections three to five times per week in multiple locations over the thighs

| SMILES | times more lipophilic than albuterol 5 [1] | thigh circumference in women [2] |
| --- | --- | --- |
| OCc1cc(C(O)CNCCCCCCOCCCCc2ccccc2)ccc1O (racemic) [salmeterol 1, ±2-(hydroxymethyl)-4-[1-hydroxy-2-[6-(4-phenylbutoxyl)hexylamino]ethyl]-phenol] | at least 10,000 times | – |
| CC(C)NCC(O)c1ccc(O)c(O)c1 (stereo not drawn) [isoproterenol] | – | reduce the thigh circumference |
| COC(=O)[C@@H]1[C@H]2C[C@H]3c4[nH]c5ccccc5c4CCN3C[C@@H]2CC[C@@H]1O [yohimbine] | – | reduce the thigh circumference |
